Test results: ChEMBL document CHEMBL4706603, “Discovery of VEGFR-2 inhibitors exerting significant anticancer activity against CD44+ and CD133+ cancer stem cells (CSCs): Reversal of TGF-β induced epithelial-mesenchymal transition (EMT) in hepatocellular carcinoma” (Eur J Med Chem, 2020)
Calls of active or inactive are those of the source. The calls are words filed in the database; no cut-off is given here.

Experiments:
[1] = Cmax in Wistar rat at 5 mg/kg, po measured upto 72 hrs by HPLC-MS analysis; assay type: ADME, organism-based; parameters: route oral, dose 5 mg/kg, time <=72; settings: in vivo
[2] = Toxicity in Wistar rat assessed as effect on food consumption at 5 to 2000 mg/kg, po and observed for 14 days; assay type: organism-based; settings: in vivo, 336 h, dose 5-2000 mg/kg, time 14 day
[3] = system: MDA-MB-231; test: Cytotoxicity against human MDA-MB-231 cells assessed as reduction in cell viability by trypan blue assay; assay type: functional, cell-based
[4] = system: Chorioallantoic membrane; test: Antiangiogenic activity in chicken fertilized egg chorioallantoic membrane measured upto 72 hrs by CAM assay; assay type: functional, tissue-based; settings: Gallus gallus, dose 0.01-2 µM, time hrs <=72
[5] = system: HepG2; test: Antiproliferative activity against human HepG2 cells harboring CD44+ assessed as reduction in cell viability incubated for 24 hrs by MTT assay; assay type: functional, cell-based
[6] = system: HepG2; test: Induction of cell cycle arrest in human HepG2 cells harboring CD133+ assessed as increase in S phase arrest at IC50 concentration incubated for 48 hrs by PI staining based flow cytometry analysis; assay type: functional
[7] = system: HUVEC; test: Induction of apoptosis in human HUVEC assessed as early apoptotic cells at IC50 incubated for 48 hrs by annexin V-FITC and PI staining based flow cytometry (reference value: <1%); assay type: functional
[8] = system: HepG2; test: Inhibition of epithelial-mesenchymal transition in TGF-beta-induced human HepG2 cells assessed as E-cadherin expression at IC50 incubated for 48 hrs by flow cytometry analysis (reference value: 2.92 %); assay type: functional; parameters: scale not given: the % may be the effect or the level left
[9] = Toxicity in Wistar rat assessed as effect on relative weight of lungs at 5 to 2000 mg/kg, po and measured on day 15; assay type: organism-based; settings: in vivo, 360 h, dose 5-2000 mg/kg, time 15 day
[10] = system: HUVEC; test: Antiproliferative activity against human HUVEC assessed as reduction in cell viability incubated for 24 hrs by MTT assay; assay type: functional, cell-based
[11] = Toxicity in Wistar rat assessed as effect on uric acid level in serum at 5 to 2000 mg/kg, po and measured on day 15; assay type: organism-based; settings: in vivo, 360 h, dose 5-2000 mg/kg, time 15 day
[12] = Toxicity in Wistar rat assessed as effect on creatinine level in serum at 5 to 2000 mg/kg, po and measured on day 15; assay type: organism-based; settings: in vivo, 360 h, dose 5-2000 mg/kg, time 15 day
[13] = Toxicity in Wistar rat assessed as normal liver parenchyma with normal hepatocytes arranged in hepatic strands and normal vascular tissue and bile duct without inflammatory or pathological changes at 2000 mg/kg, po and measured on day 15 by microscopic analysis; assay type: organism-based; settings: in vivo, 360 h, time 15 day
[14] = system: HepG2; test: Induction of apoptosis in human HepG2 cells assessed as late apoptotic cells by measuring orange coloured nucleus at IC50 incubated for 24 hrs by EtBr/AO staining based fluorescence microscopic analysis; assay type: functional, cell-based
[15] = Toxicity in Wistar rat assessed as effect on total bilirubin level in serum at 5 to 2000 mg/kg, po and measured on day 15; assay type: organism-based; settings: in vivo, 360 h, dose 5-2000 mg/kg, time 15 day
[16] = Toxicity in Wistar rat assessed as normal renal parenchyma with intact renal tubules and glomeruli without inflammatory or pathological changes at 2000 mg/kg, po and measured on day 15 by microscopic analysis; assay type: organism-based; settings: in vivo, 360 h, time 15 day
[17] = Toxicity in Wistar rat assessed as effect on urea level in serum at 5 to 2000 mg/kg, po and measured on day 15; assay type: organism-based; settings: in vivo, 360 h, dose 5-2000 mg/kg, time 15 day
[18] = system: HepG2; test: Antiproliferative activity against human HepG2 cells harboring CD133+ assessed as reduction in cell viability incubated for 24 hrs by MTT assay; assay type: functional, cell-based
[19] = system: HepG2; test: Induction of apoptosis in human HepG2 cells assessed as necrotic cells by measuring intense red fluorescence at IC50 incubated for 24 hrs by Alexa Fluor488-annexin V/PI staining based fluorescence analysis; assay type: functional, cell-based
[20] = system: HepG2; test: Cytotoxicity against human HepG2 cells assessed as reduction in cell viability by trypan blue assay; assay type: functional, cell-based
[21] = Toxicity in female Wistar rat assessed as hard abdomen at 2000 mg/kg, po observed for 48 hrs; assay type: organism-based; settings: in vivo
[22] = system: Chorioallantoic membrane; test: Antiangiogenic activity in chicken fertilized egg chorioallantoic membrane assessed as reduction in membrane growth at 0.01 uM measured upto 72 hrs by CAM assay relative to control; assay type: functional, tissue-based; settings: Gallus gallus, time hrs <=72
[23] = system: MCF7; test: Cytotoxicity against human MCF7 cells assessed as reduction in cell viability incubated for 24 hrs by MTT assay; assay type: functional, cell-based
[24] = Inhibition of VEGFR2 expression in human HUVEC assessed as mean fluorescence intensity at IC50 incubated for 48 hrs by fluorescence microscopic analysis (reference value: 1.448 +/- 0.01); assay type: functional
[25] = Half life in Wistar rat at 5 mg/kg, po measured upto 72 hrs by HPLC-MS analysis; assay type: ADME, organism-based; settings: in vivo
[26] = system: HepG2; test: Induction of apoptosis in human HepG2 cells assessed as late apoptotic cells by measuring green fluorescence membrane with fragmented red nucleus at IC50 incubated for 24 hrs by Alexa Fluor488-annexin V/PI staining based fluorescence analysis; assay type: functional, cell-based
[27] = system: HepG2; test: Induction of apoptosis in human HepG2 cells assessed as early apoptotic cells by measuring green fluorescence at IC50 incubated for 24 hrs by Alexa Fluor488-annexin V/PI staining based fluorescence analysis; assay type: functional, cell-based
[28] = system: HepG2; test: Induction of apoptosis in human HepG2 cells assessed as early apoptotic cells by measuring yellowish green coloured nucleus at IC50 incubated for 24 hrs by EtBr/AO staining based fluorescence microscopic analysis; assay type: functional, cell-based
[29] = Toxicity in Wistar rat assessed as effect on relative weight of liver at 5 to 2000 mg/kg, po and measured on day 15; assay type: organism-based; settings: in vivo, 360 h, dose 5-2000 mg/kg, time 15 day
[30] = system: HepG2; test: Induction of cell cycle arrest in human HepG2 cells harboring CD44+ assessed as increase in G0/G1 phase arrest at IC50 concentration incubated for 48 hrs by PI staining based flow cytometry analysis; assay type: functional
[31] = system: MDA-MB-231; test: Induction of apoptosis in human MDA-MB-231 cells assessed as late apoptotic cells at IC50 incubated for 72 hrs by Alexa Fluor488-annexin V/PI staining based flow cytometric analysis (Rvb= 0.0 %); assay type: functional
[32] = system: HepG2; test: Induction of apoptosis in human HepG2 cells assessed as necrotic cells by measuring orange-red coloured flourescence at IC50 incubated for 24 hrs by EtBr/AO staining based fluorescence microscopic analysis; assay type: functional, cell-based
[33] = Inhibition of VEGF expression in human HUVEC assessed as mean fluorescence intensity at IC50 incubated for 48 hrs by FITC based flow cytometry analysis (reference value: 53.91+/- 0.95); assay type: functional
[34] = AUC (0 to infinity) in Wistar rat at 5 mg/kg, po by HPLC-MS analysis; assay type: ADME, organism-based; parameters: route oral, time infinity, dose 5 mg/kg; settings: in vivo
[35] = Inhibition of VEGF expression in human HUVEC at IC50 incubated for 48 hrs by FITC based flow cytometry analysis relative to control; assay type: functional
[36] = Toxicity in Wistar rat assessed as effect on SGPT level at 5 to 2000 mg/kg, po and measured on day 15; assay type: organism-based; settings: in vivo, 360 h, dose 5-2000 mg/kg, time 15 day
[37] = Inhibition of VEGFR2 expression in human HUVEC at IC50 incubated for 48 hrs by fluorescence microscopic analysis relative to control; assay type: functional

Q: With `CC(=O)Nc1ccc(Oc2cccc3c(NC(=O)Nc4cccc(C(F)(F)F)c4)cccc23)cc1` as the compound, how does the Cmax [1] read?
A: 39700 ng/mL

Q: What about the Activity [2] of the same compound?
A: Non-Toxic

Q: What about the IC50 [3] of the same compound?
A: 3.58 µM

Q: And the inhibition [3]?
A: Dose-dependent effect

Q: And the Activity [4]?
A: Dose-dependent effect

Q: What about the inhibition [5] of the same compound?
A: Dose-dependent effect

Q: And the IC50 ([5]; HepG2, 24 h)?
A: 3.29 µM

Q: What about the Activity [6] of the same compound?
A: Active

Q: What about the Activity [7] of the same compound?
A: 37.53%

Q: What about the Activity [8] of the same compound?
A: 46.7%

Q: What about the Activity [9] of the same compound?
A: Non-Toxic

Q: What about the IC50 [10] of the same compound?
A: 9.64 µM

Q: And the inhibition [10]?
A: Dose-dependent effect

Q: And the Activity [11]?
A: Non-Toxic

Q: What about the Activity [12] of the same compound?
A: Non-Toxic

Q: And the Activity [13]?
A: Non-Toxic

Q: What about the Activity [14] of the same compound?
A: Active

Q: What about the Activity [15] of the same compound?
A: Non-Toxic

Q: What about the Activity [16] of the same compound?
A: Non-Toxic

Q: And the Activity [17]?
A: Non-Toxic

Q: What about the inhibition [18] of the same compound?
A: Dose-dependent effect

Q: And the IC50 ([18]; HepG2, 24 h)?
A: 2.2 µM

Q: What about the Activity [19] of the same compound?
A: Active

Q: What about the IC50 [20] of the same compound?
A: 1.17 µM

Q: What about the inhibition [20] of the same compound?
A: Dose-dependent effect

Q: What about the Activity [21] of the same compound?
A: Toxic

Q: What about the inhibition [22] of the same compound?
A: > 50%

Q: And the inhibition [23]?
A: Dose-dependent effect

Q: What about the Flu intensity [24] of the same compound?
A: 1

Q: What about the half-life [25] of the same compound?
A: 11.9 h

Q: And the Activity [26]?
A: Active

Q: What about the Activity [27] of the same compound?
A: Active

Q: What about the Activity [28] of the same compound?
A: Active

Q: What about the Activity [29] of the same compound?
A: Non-Toxic

Q: What about the Activity [30] of the same compound?
A: Active

Q: What about the Activity [31] of the same compound?
A: 4.3%

Q: And the Activity [32]?
A: Active

Q: And the Flu intensity [33]?
A: 21.41

Q: What about the AUC(0-inf) [34] of the same compound?
A: 625 µg·h/mL

Q: And the “fold change (FC)” value [35]?
A: 0.39

Q: What about the Activity [36] of the same compound?
A: Non-Toxic

Q: And the “fold change (FC)” value [37]?
A: 0.37
